How the values were obtained:
Assay in all cases: relative viability (nuclei count vs DMSO), 5 days (fraction); higher = more cells survive
Quizartinib + Pictilisib = compound: CC(C)(C)c1cc(NC(=O)Nc2ccc(-c3cn4c(n3)sc3cc(OCCN5CCOCC5)ccc34)cc2)no1 [Quizartinib] + CS(=O)(=O)N1CCN(Cc2cc3nc(-c4cccc5[nH]ncc45)nc(N4CCOCC4)c3s2)CC1 [Pictilisib] (partner 1 µM)
Outline: (§1)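 Relative viability equals treated-well nuclei counts divided by vehicle-well nuclei counts. Counts came from 4× images of lung cancer cell lines grown in 1536-well plates for 5 days after pin-tool dosing on the day after seeding. Dosing used one drug alone or a fixed anchor-drug dose plus five library-drug doses (not always all listed) in √10 steps, and values are medians of duplicate plates.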

Quizartinib + Decitabine = compound: CC(C)(C)c1cc(NC(=O)Nc2ccc(-c3cn4c(n3)sc3cc(OCCN5CCOCC5)ccc34)cc2)no1 [Quizartinib] + Nc1ncn([C@H]2C[C@H](O)[C@@H](CO)O2)c(=O)n1 [Decitabine] (partner 2 µM)
Outline: as §1

YM155 + Trametinib = compound: COCC[n+]1c2c(n(Cc3cnccn3)c1C)C(=O)c1ccccc1C2=O [YM155] + CC(=O)Nc1cccc(-n2c(=O)n(C3CC3)c(=O)c3c(Nc4ccc(I)cc4F)n(C)c(=O)c(C)c32)c1 [Trametinib] (partner 0.02 µM)
Outline: as §1

YM155 + AZD7762 = compound: COCC[n+]1c2c(n(Cc3cnccn3)c1C)C(=O)c1ccccc1C2=O [YM155] + NC(=O)Nc1cc(-c2cccc(F)c2)sc1C(=O)N[C@H]1CCCNC1 [AZD7762] (partner 0.2 µM)
Outline: as §1

| Cell Line | relative viability (Quizartinib + Pictilisib; first compound 0.001 µM) | relative viability (Quizartinib + Pictilisib; first compound 0.01 µM) | relative viability (Quizartinib + Pictilisib; first compound 0.03162 µM) | relative viability (Quizartinib + Pictilisib; first compound 0.1 µM) | relative viability (Quizartinib + Decitabine; first compound 0.001 µM) | relative viability (Quizartinib + Decitabine; first compound 0.003162 µM) | relative viability (Quizartinib + Decitabine; first compound 0.01 µM) | relative viability (Quizartinib + Decitabine; first compound 0.03162 µM) | relative viability (Quizartinib + Decitabine; first compound 0.1 µM) | relative viability (YM155 + Trametinib; first compound 0.002 µM) | relative viability (YM155 + Trametinib; first compound 0.006325 µM) | relative viability (YM155 + Trametinib; first compound 0.02 µM) | relative viability (YM155 + Trametinib; first compound 0.06325 µM) | relative viability (YM155 + AZD7762; first compound 0.002 µM) | relative viability (YM155 + AZD7762; first compound 0.006325 µM) | relative viability (YM155 + AZD7762; first compound 0.02 µM) | relative viability (YM155 + AZD7762; first compound 0.06325 µM) | relative viability (Quizartinib + Pictilisib; first compound 0.003162 µM) |
| --- | --- | --- | --- | --- | --- | --- | --- | --- | --- | --- | --- | --- | --- | --- | --- | --- | --- | --- |
| NCI-H727 | 0.277 | 0.365 | 0.351 | 0.485 | 0.781 | 0.829 | 0.933 | 0.831 | 1.29 | 0.412 | 0.396 | 0.391 | 0.411 | 0.768 | 0.676 | 0.684 | 0.703 | – |
| SK-LU-1 | 0.545 | 0.606 | 0.491 | 0.588 | 0.592 | 0.631 | 0.756 | 0.717 | 0.66 | 0.455 | 0.456 | 0.564 | 0.438 | – | – | – | – | 0.547 |
| PC-14 | 0.634 | 0.752 | 0.576 | 0.681 | 0.218 | 0.198 | 0.225 | 0.144 | 0.324 | 0.617 | 0.672 | 0.36 | 0.119 | 0.233 | 0.343 | 0.371 | 0.363 | 0.633 |
| NCI-H1437 | 0.475 | 0.425 | 0.327 | 0.314 | 0.402 | 0.54 | 0.567 | 0.536 | 0.499 | 0.42 | 0.564 | 0.534 | 0.469 | 1.11 | 1.08 | 1.1 | 0.926 | 0.37 |
| ABC-1 | 0.502 | 0.648 | 0.626 | 0.769 | – | 1 | 1.16 | 1.29 | 1.16 | – | – | – | – | 0.66 | 0.84 | 0.47 | 0.195 | 0.683 |
| EBC-1 | 0.423 | 0.406 | 0.37 | 0.452 | – | – | – | – | – | – | – | – | – | – | – | – | – | 0.285 |
| SK-MES-1 | 0.244 | 0.391 | 0.363 | 0.365 | 0.414 | 0.325 | 0.446 | – | 0.322 | 0.588 | 0.701 | 0.459 | 0.218 | – | – | – | – | 0.329 |
| LK-2 | 0.594 | 0.826 | 0.526 | 0.55 | 0.263 | 0.215 | 0.363 | 0.348 | 0.438 | 0.631 | 0.717 | 0.827 | 0.851 | 0.445 | 0.305 | 0.494 | 0.438 | 0.474 |
| NCI-H2085 | 0.5 | 0.479 | 0.595 | 0.523 | 0.521 | 0.536 | 0.58 | 0.544 | 0.583 | 0.573 | 0.659 | 0.679 | 0.348 | 0.928 | 0.975 | 0.979 | 0.801 | 0.504 |
| NCI-H2087 | 0.393 | 0.916 | 0.665 | 0.81 | 0.257 | 0.238 | 0.332 | 0.249 | 0.287 | 0.143 | 0.179 | 0.271 | 0.225 | 1.18 | 1.29 | 1.26 | 1.04 | 0.867 |
| NCI-H2347 | 0.628 | 0.793 | 0.633 | 0.783 | 0.578 | 0.586 | 0.65 | 0.619 | 0.59 | 0.279 | 0.258 | 0.306 | 0.283 | 0.659 | 0.748 | 0.807 | 0.732 | 0.958 |
| HOP-62 | 0.377 | 0.692 | 0.831 | 0.835 | 0.215 | 0.219 | 0.217 | 0.227 | 0.213 | 0.389 | 0.389 | 0.419 | 0.424 | 0.484 | 0.427 | 0.902 | 0.43 | 0.7 |
| SW 1573 | 0.474 | 0.516 | 0.325 | 0.475 | 0.513 | 0.476 | 0.67 | – | 0.625 | 0.59 | 0.453 | 0.16 | 0.0853 | – | – | – | – | 0.432 |
| IA-LM | 0.356 | 0.397 | 0.231 | 0.342 | – | – | – | – | – | – | – | – | – | – | – | – | – | 0.299 |
| NCI-H522 | – | – | – | – | 0.684 | 0.7 | 0.67 | 0.603 | 0.618 | 0.625 | 0.711 | 0.71 | 0.75 | 0.699 | 0.854 | 0.961 | 0.991 | – |
| NCI-H2009 | 0.475 | 0.833 | 0.604 | 0.737 | 0.408 | 0.295 | 0.396 | 0.373 | 0.443 | 0.273 | 0.295 | 0.354 | 0.358 | – | – | – | – | 0.799 |
| A549 | 0.457 | 0.598 | 0.211 | 0.614 | 0.193 | 0.249 | 0.161 | 0.27 | 0.25 | – | – | – | – | – | – | – | – | 0.441 |
| NCI-H1650 | 0.268 | 0.566 | – | 0.547 | 0.345 | 0.364 | 0.458 | – | 0.393 | 0.478 | 0.581 | 0.458 | 0.355 | – | – | – | – | 0.584 |
| NCI-H520 | 0.306 | 0.307 | 0.287 | 0.245 | – | 0.449 | 0.501 | 0.542 | 0.462 | 0.735 | 0.599 | 0.75 | 0.741 | – | – | – | – | 0.273 |
| NCI-H1563 | 0.719 | 0.649 | – | 0.626 | – | – | – | – | – | – | – | – | – | – | – | – | – | 0.68 |
| Calu-6 | 0.877 | 0.988 | 0.607 | 0.858 | – | – | – | – | – | – | – | – | – | – | – | – | – | 0.867 |
| NCI-H2023 | 0.224 | 0.216 | 0.121 | 0.245 | 0.22 | 0.198 | 0.266 | 0.157 | 0.214 | 0.538 | 0.617 | 0.451 | 0.241 | – | – | – | – | 0.271 |
| COR-L 105 | 0.397 | 0.401 | 0.365 | 0.371 | 0.642 | 0.653 | 0.641 | – | 0.625 | 0.433 | 0.449 | 0.484 | 0.456 | – | – | – | – | 0.49 |
